ChEMBL document CHEMBL4765295, “Synthesis, pharmacological profile and 2D-QSAR studies of curcumin-amino acid conjugates as potential drug candidates” (Eur J Med Chem, 2020)
In brackets after ≈: the same amount, converted by molar mass. Several values for one entry are separate records, joined by “and”; a condition that tells them apart may be missing. Equal entries are not always repeated.

How the values were obtained:
Rattus norvegicus [1] = experiment: Anti-inflammatory activity in Wistar rat assessed as inhibition of carrageenan-induced paw edema at 10 mg/kg, ip pretreated for 1 hr followed by carrageenan challenge and measured after 24 hr relative to control (reference value: 0.00 +/-0.3 %); type: functional; conditions: time 25 hrs
Splenocyte [2] = experiment: Immunomodulatory activity in Swiss albino mouse splenocytes assessed as cell viability at 10 uM by measuring inhibition of stimulation index incubated for 72 hrs in presence of mitogenic stimulus phytohaemagglutinin by MTT assay relative to indomethacin; type: functional; conditions: read-out: Activity
Mus musculus [3] = experiment: Analgesic activity in albino mouse assessed as protection at 10 mg/kg, ip measured after 30 mins by hot plate test (reference value: 0 %); type: functional; conditions: 0.5 h
[4] = Ulcerogenic activity in fasted albino mouse assessed as incidence of gastric ulceration at 10 mg/kg, po for 3 days (reference value: 0 %); type: toxicity, organism-based; conditions: in vivo, 72 h, time 3 day
Rattus norvegicus [5] = experiment: Antiinflammatory activity in Wistar rat model of carrageenan-induced paw edema assessed as reduction in thickness of paw edema at 10 mg/kg, ip pretreated for 1 hr followed by carrageenan challenge and measured after 4 hrs (reference value: 1.40 +/-0.10 mm); type: functional; conditions: time 5 hrs
Rattus norvegicus [6] = experiment: Antiinflammatory activity in Wistar rat model of carrageenan-induced paw edema assessed as reduction in thickness of paw edema at 10 mg/kg, ip pretreated for 1 hr followed by carrageenan challenge and measured after 24 hrs (reference value: 0.83 +/-0.08 mm); type: functional; conditions: time 25 hrs
Mus musculus [7] = experiment: Analgesic activity in albino mouse assessed as forepaw licking/jumping latency time at 10 mg/kg, ip measured after 120 mins by hot plate test (reference value: 2.62 +/- 0.06 sec); type: functional; conditions: 2 h
Rattus norvegicus [8] = experiment: Anti-inflammatory activity in Wistar rat assessed as inhibition of carrageenan-induced paw edema at 10 mg/kg, ip pretreated for 1 hr followed by carrageenan challenge and measured after 1 hr relative to control (reference value: 0.00 +/-0.02 %); type: functional; conditions: time 2 hrs
Mus musculus [9] = experiment: Analgesic activity in albino mouse assessed as protection at 10 mg/kg, ip measured after 120 mins by hot plate test (reference value: 0 %); type: functional; conditions: 2 h
Mus musculus [10] = experiment: Analgesic activity in albino mouse assessed as forepaw licking/jumping latency time at 10 mg/kg, ip measured after 60 mins by hot plate test (reference value: 3.42 +/- 0.03 sec); type: functional; conditions: 1 h
Rattus norvegicus [11] = experiment: Anti-inflammatory activity in Wistar rat assessed as inhibition of carrageenan-induced paw edema at 10 mg/kg, ip pretreated for 1 hr followed by carrageenan challenge and measured after 2 hr relative to control (reference value: 0.00 +/-0.03 %); type: functional; conditions: time 3 hrs
Rattus norvegicus [12] = experiment: Anti-inflammatory activity in Wistar rat assessed as inhibition of carrageenan-induced paw edema at 10 mg/kg, ip pretreated for 1 hr followed by carrageenan challenge and measured after 4 hr relative to control (reference value: 0.00 +/-0.4 %); type: functional; conditions: time 5 hrs
[13] = Ulcerogenic activity in fasted albino mouse assessed as average severity of ulcers in gastric mucosa at 10 mg/kg, po for 3 days (reference value: 0); type: toxicity, organism-based; conditions: in vivo, 72 h, time 3 day
Splenocyte [14] = experiment: Immunomodulatory activity in Swiss albino mouse splenocytes assessed as cell viability at 10 uM by measuring stimulation index incubated for 72 hrs in presence of mitogenic stimulus phytohaemagglutinin by MTT assay (reference value: 1.00 +/- 0.24); type: functional
Pseudomonas aeruginosa = experiment: Antibacterial activity against Pseudomonas aeruginosa ATCC 27853 incubated for 18 hrs by agar dilution assay; type: functional
[15] = Ulcerogenic activity in fasted albino mouse assessed as average number of ulcers in gastric mucosa at 10 mg/kg, po for 3 days (reference value: 0); type: toxicity, organism-based; conditions: in vivo, 72 h, time 3 day
Mus musculus [16] = experiment: Analgesic activity in albino mouse assessed protection against acetic acid-induced abdominal writhing at 10 mg/kg, ip pretreated for 1 hr followed by acetic acid challenge and measured starting 5 mins post acetic acid challenge for 10 mins relative to control (reference value: 0 %); type: functional; conditions: time 75 min, 1.25 h
Mus musculus [17] = experiment: Analgesic activity in albino mouse assessed as protection at 10 mg/kg, ip measured after 120 mins by hot plate test relative to indomethacin; type: functional; conditions: 2 h
Mus musculus [18] = experiment: Analgesic activity in albino mouse assessed protection against acetic acid-induced abdominal writhing at 10 mg/kg, ip pretreated for 1 hr followed by acetic acid challenge and measured starting 5 mins post acetic acid challenge for 10 mins relative to indomethacin; type: functional; conditions: time 75 min, 1.25 h
Mus musculus [19] = experiment: Analgesic activity in albino mouse assessed as forepaw licking/jumping latency time at 10 mg/kg, ip measured after 30 mins by hot plate test (reference value: 5.02 +/- 0.09 sec); type: functional; conditions: 0.5 h
Mus musculus [20] = experiment: Analgesic activity in albino mouse assessed as forepaw licking/jumping latency time at 10 mg/kg, ip measured after 90 mins by hot plate test (reference value: 2.72 +/- 0.01 sec); type: functional; conditions: 1.5 h
Rattus norvegicus [21] = experiment: Anti-inflammatory activity in Wistar rat assessed as inhibition of carrageenan-induced paw edema at 10 mg/kg, ip pretreated for 1 hr followed by carrageenan challenge and measured after 4 hr relative to indomethacin; type: functional; conditions: time 5 hrs
[22] = Ulcerogenic activity in fasted albino mouse assessed as ulcer index in gastric mucosa at 10 mg/kg, po for 3 days (reference value: 0); type: toxicity, organism-based; conditions: in vivo, 72 h, time 3 day
Streptococcus pyogenes = experiment: Antibacterial activity against Streptococcus pyogenes ATCC 19615 incubated for 18 hrs by agar dilution method; type: functional
Rattus norvegicus [23] = experiment: Antiinflammatory activity in Wistar rat model of carrageenan-induced paw edema assessed as reduction in thickness of paw edema at 10 mg/kg, ip pretreated for 1 hr followed by carrageenan challenge and measured after 3 hrs (reference value: 1.79 +/-0.07 mm); type: functional; conditions: time 4 hrs
Rattus norvegicus [24] = experiment: Anti-inflammatory activity in Wistar rat assessed as inhibition of carrageenan-induced paw edema at 10 mg/kg, ip pretreated for 1 hr followed by carrageenan challenge and measured after 3 hr relative to control (reference value: 0.00 +/-0.1 %); type: functional; conditions: time 4 hrs
Rattus norvegicus [25] = experiment: Antiinflammatory activity in Wistar rat model of carrageenan-induced paw edema assessed as reduction in thickness of paw edema at 10 mg/kg, ip pretreated for 1 hr followed by carrageenan challenge and measured after 2 hrs (reference value: 2.06 +/-0.09 mm); type: functional; conditions: time 3 hrs
Staphylococcus aureus = experiment: Antibacterial activity against Staphylococcus aureus ATCC 25923 incubated for 18 hrs by agar dilution method; type: functional
Mus musculus [26] = experiment: Analgesic activity in albino mouse assessed as protection at 10 mg/kg, ip measured after 90 mins by hot plate test (reference value: 0 %); type: functional; conditions: 1.5 h
[27] = Toxicity in albino mouse assessed as induction of toxic symptoms at 50 to 100 mg/kg, ip measured after 24 hrs; type: organism-based; conditions: in vivo, dose 50-100 mg/kg
Mus musculus [28] = experiment: Analgesic activity in albino mouse assessed reduction in acetic acid-induced abdominal writhing by measuring writing reflex at 10 mg/kg, ip pretreated for 1 hr followed by acetic acid challenge and measured starting 5 mins post acetic acid challenge for 10 mins (reference value: 42.4 +/- 1.02); type: functional; conditions: time 75 min, 1.25 h
Candida albicans = experiment: Antifungal activity against Candida albicans incubated for 18 to 24 hrs by CLSI method; type: functional; conditions: time 18-24 hrs
Mus musculus [29] = experiment: Analgesic activity in albino mouse assessed as protection at 10 mg/kg, ip measured after 60 mins by hot plate test (reference value: 0 %); type: functional; conditions: 1 h
Salmonella typhimurium = experiment: Antibacterial activity against Salmonella typhimurium ATCC 19430 incubated for 18 hrs by agar dilution assay; type: functional, Salmonella enterica subsp. enterica serovar Typhimurium; conditions: Salmonella enterica
Rattus norvegicus [30] = experiment: Antiinflammatory activity in Wistar rat model of carrageenan-induced paw edema assessed as reduction in thickness of paw edema at 10 mg/kg, ip pretreated for 1 hr followed by carrageenan challenge and measured after 1 hr (reference value: 2.41 +/-0.05 mm); type: functional; conditions: time 1 hr after carrageenan
Peritoneal macrophage [31] = experiment: Antiinflammatory activity in […] mouse Peritoneal macrophages assessed as reduction in LPS-induced NO production by measuring reduction in stimulation index at 10 uM preincubated for 1 hr followed by LPS stimulation measured after 24 hrs by Griess method (reference value: 27.31 +/- 2.56 uM); type: functional; conditions: time 25 hrs
Peritoneal macrophage [32] = experiment: Antiinflammatory activity in […] mouse Peritoneal macrophages assessed as inhibition of LPS-induced NO production at 10 uM preincubated for 1 hr followed by LPS stimulation measured after 24 hrs by Griess method relative to control (reference value: 0.0 %); type: functional; parameters: scale not given: the % may be the effect or the level left; conditions: time 25 hrs

SMILES	inhibition in vivo at 10 mg/kg (Rattus norvegicus [1])	Activity (Mus musculus [3])	Activity [4]	Activity (Rattus norvegicus [5])	Activity (Rattus norvegicus [6])	Time (Mus musculus [7])	inhibition in vivo at 10 mg/kg (Rattus norvegicus [8])	Activity (Mus musculus [9])	Time (Mus musculus [10])	inhibition in vivo at 10 mg/kg (Rattus norvegicus [11])	inhibition in vivo at 10 mg/kg (Rattus norvegicus [12])	Activity [13]	Activity [15]	Activity (Mus musculus [16])	Activity (Mus musculus [17])	Activity (Mus musculus [18])	Time (Mus musculus [19])	Time (Mus musculus [20])	inhibition in vivo at 10 mg/kg (Rattus norvegicus [21])	Activity (Rattus norvegicus [23])	also measured
COc1cc(/C=C/C(=O)/C=C(O)/C=C/c2ccc(OC(=O)[C@@H](CCSC)NC(=O)OC(C)(C)C)c(OC)c2)ccc1OC(=O)[C@@H](CCSC)NC(=O)OC(C)(C)C	41%	2.4%	0%	0.15 mm	0.49 mm	4.48 s	58%	71%	5.48 s	69%	89%	0	0	53.8%	169%	87.3%	5.14 s	4.82 s	102%	0.47 mm	viability at 10 µM (Splenocyte [2]): 47.7%; Activity_index (Splenocyte [14]): 2.53; MIC (Pseudomonas aeruginosa): 0.25 µg/mL and 0.301 µM; UI [22]: 0; MIC (Streptococcus pyogenes): 0.125 µg/mL and 0.15 µM; inhibition in vivo at 10 mg/kg (Rattus norvegicus [24]): 74%; Activity (Rattus norvegicus [25]): 0.63 mm; MIC (Staphylococcus aureus): 0.25 µg/mL and 0.301 µM; Activity (Mus musculus [26]): 77.2%; Activity [27]: Non-Toxic; Activity (Mus musculus [28]): 19.6; MIC (Candida albicans): 0.5 µg/mL and 0.602 µM; Activity (Mus musculus [29]): 60.2%; MIC (Salmonella typhimurium): 1 µg/mL and 1.2 µM; Activity (Rattus norvegicus [30]): 1.1 mm
CC(C)Cc1ccc(C(C)C(=O)O)cc1 (centres undefined) [IBUPROFEN]	14%	7.6%	3.33%	0.29 mm	0.71 mm	3.48 s	20%	32.8%	5.12 s	60%	79%	0.67	0.33	42.9%	78.1%	69.6%	5.4 s	4.12 s	91%	0.63 mm	inhibition in vivo at 10 mg/kg (Rattus norvegicus [24]): 65%; Activity (Rattus norvegicus [25]): 0.82 mm; Activity (Mus musculus [26]): 51.5%; Activity (Mus musculus [28]): 24.2; Activity (Mus musculus [29]): 49.7%; Activity (Rattus norvegicus [30]): 1.93 mm
COc1cc(/C=C/C(=O)CC(=O)/C=C/c2ccc(O)c(OC)c2)ccc1O [CURCUMIN]	36%	0.4%	3.33%	0.21 mm	0.53 mm	3.46 s	12%	32.1%	4.62 s	60%	85%	0.33	0.33	52.1%	76.4%	84.6%	5.04 s	4.54 s	98%	0.45 mm	viability at 10 µM (Splenocyte [2]): 79.5%; Activity (Peritoneal macrophage [31]): 17.18 µM; Activity (Peritoneal macrophage [32]): 37.11%; Activity_index (Splenocyte [14]): 1.52; MIC (Pseudomonas aeruginosa): 0.125 µg/mL and 0.339 µM; UI [22]: 3.99; MIC (Streptococcus pyogenes): 0.125 µg/mL and 0.339 µM; inhibition in vivo at 10 mg/kg (Rattus norvegicus [24]): 75%; Activity (Rattus norvegicus [25]): 0.82 mm; MIC (Staphylococcus aureus): 0.339 µM (≈ 0.125 µg/mL); Activity (Mus musculus [26]): 66.9%; Activity (Mus musculus [28]): 20.3; MIC (Candida albicans): 0.125 µg/mL and 0.339 µM; Activity (Mus musculus [29]): 35.1%; MIC (Salmonella typhimurium): 0.125 µg/mL and 0.339 µM; Activity (Rattus norvegicus [30]): 2.12 mm
COc1ccc2c(c1)c(CC(=O)O)c(C)n2C(=O)c1ccc(Cl)cc1 [INDOMETHACIN]	86%	25.5%	10%	0.18 mm	0.12 mm	3.72 s	53%	42%	5.26 s	59%	87%	1.67	2	61.6%	100%	100%	6.3 s	3.84 s	100%	0.59 mm	UI [22]: 13.67; inhibition in vivo at 10 mg/kg (Rattus norvegicus [24]): 67%; Activity (Rattus norvegicus [25]): 0.85 mm; Activity (Mus musculus [26]): 41.2%; Activity (Mus musculus [28]): 16.3; Activity (Mus musculus [29]): 53.8%; Activity (Rattus norvegicus [30]): 1.11 mm
